Assay results as given in patent US11505558B1, “Antiviral heterocyclic compounds” (Enanta Pharmaceuticals, Inc., priority 2019, dated 2022).

Tested on: genotype A, "Long" strain RSV
Assay: RSV-A assay (CPE, ATPlite readout in Hep-2 cells)
Assay type: cell-based
Details: human respiratory syncytial virus, HEp-2, Hep-2 cells, genotype A "Long" strain RSV, MOI 0.1; read-out: Human RSV-A (“Long” strain) EC50
Procedure, shortened: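 Hep-2 cells (8,000/well) received 2-fold serial compound dilutions in duplicate and RSV Long strain at MOI 0.1. After 5 days' incubation, cell health was read as ATP by ATPlite luminescence, with virus-only and uninfected controls defining max and minimum CPE; EC50 reported.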

Compound	EC50 [nM]
Cc1cc(-c2nc([C@@](O)(CNC(=O)c3ccc4nc(N)sc4c3)C(F)(F)F)cc3c2OC[C@]3(C)C(=O)NCC(C)(C)O)ccc1F [Example 505]	< 200
CC(C)(O)CNC(=O)[C@@]1(C)COc2c1cc([C@@](O)(CNC(=O)c1cc(OCC(N)=O)c3ncccc3c1)C(F)(F)F)nc2-c1ccc(F)cc1 [Example 506]	< 200
Cc1cnc2c(OCC(N)=O)cc(C(=O)NC[C@](O)(c3cc4c(c(-c5ccc(F)cc5)n3)OC[C@]4(C)C(=O)NCC(C)(C)O)C(F)(F)F)cc2c1 [Example 507]	< 200
C#Cc1nc([C@@](O)(CNC(=O)c2ccc(OC3CC3)c(OC)c2)C(F)(F)F)cc2c1OC[C@]2(C)C(N)=O [Example 509]	> 200
COc1cc(C(=O)NC[C@](O)(c2cc3c(c(C#Cc4ccc(F)cc4)n2)OC[C@]3(C)C(N)=O)C(F)(F)F)ccc1OC1CC1 [Example 510]	> 200
COc1cc(C(=O)NC[C@](O)(c2cc3c(c(C#Cc4cc(F)c(F)c(F)c4)n2)OC[C@]3(C)C(N)=O)C(F)(F)F)ccc1OC1CC1 [Example 511]	> 200
COc1cc(C(=O)NC[C@](O)(c2cc3c(c(C#Cc4ccc(F)c(Cl)c4)n2)OC[C@]3(C)C(N)=O)C(F)(F)F)ccc1OC1CC1 [Example 512]	> 200
COc1cc(C(=O)NC[C@](O)(c2cc3c(c(C#Cc4cccc(Cl)c4F)n2)OC[C@]3(C)C(N)=O)C(F)(F)F)ccc1OC1CC1 [Example 513]	> 200
COc1cc(C(=O)NC[C@](O)(c2cc3c(c(C#Cc4ccc(Cl)cc4F)n2)OC[C@]3(C)C(N)=O)C(F)(F)F)ccc1OC1CC1 [Example 514]	> 200
COc1cc(C(=O)NC[C@](O)(c2cc3c(c(C#Cc4ccccc4)n2)OC[C@]3(C)C(N)=O)C(F)(F)F)ccc1OC1CC1 [Example 515]	> 200
COc1cc(C(=O)NC[C@](O)(c2cc3c(c(C#Cc4cccc(F)c4)n2)OC[C@]3(C)C(N)=O)C(F)(F)F)ccc1OC1CC1 [Example 516]	> 200
COc1cc(C(=O)NC[C@](O)(c2cc3c(c(-c4cn(-c5ccc(F)cc5)nn4)n2)OC[C@]3(C)C(N)=O)C(F)(F)F)ccc1OC1CC1 [Example 517]	> 200
C[C@]1(C(N)=O)COc2c1cc([C@@](O)(CNC(=O)c1ccc3ncc(C4CC4)cc3c1)C(F)(F)F)nc2-c1ccc(F)cc1 [Example 525]	< 200
C[C@](F)(CNC(=O)c1cc(OC2CC2)c2ncccc2c1)c1cc2c(c(-c3ccc(F)cc3)n1)OC[C@]2(C)C(N)=O [Example 545]	> 200
Cc1cnc2c(NC(=O)C(F)(F)F)cc(C(=O)NC[C@](O)(c3cc4c(c(-c5ccc(F)cc5)n3)OC[C@]4(C)C(N)=O)C(F)(F)F)cc2c1 [Example 554]	< 200
C[C@]1(C(=O)N2CCC(C#N)C2)COc2c1cc([C@@](O)(CNC(=O)c1cc(OC3CC3)c3ncccc3c1)C(F)(F)F)nc2-c1ccc(F)cc1 (some centres unmarked) [Example 555]	< 200
C[C@]1(C(=O)N2CCC(=O)C2)COc2c1cc([C@@](O)(CNC(=O)c1cc(OC3CC3)c3ncccc3c1)C(F)(F)F)nc2-c1ccc(F)cc1 [Example 556]	< 200
Cc1cnc2c(NC(=O)NC3COC3)cc(C(=O)NC[C@](O)(c3cc4c(c(-c5ccc(F)cc5)n3)OC[C@]4(C)C(N)=O)C(F)(F)F)cc2c1 [Example 559]	< 200
C[C@]1(C(N)=O)COc2c1cc([C@@](O)(CNC(=O)c1cc(OC3CC3)c3[nH]c(=O)ccc3c1)C(F)(F)F)nc2-c1ccc(F)cc1 [Example 584]	< 200
C[C@]1(C(N)=O)COc2c1cc([C@@](O)(CNC(=O)c1cnn3cccnc13)C(F)(F)F)nc2-c1ccc(F)cc1 [Example 585]	> 200
COc1ccc2[nH]nc(C(=O)NC[C@](O)(c3cc4c(c(-c5ccc(F)cc5)n3)OC[C@]4(C)C(N)=O)C(F)(F)F)c2c1 [Example 586]	> 200
C[C@]1(C(N)=O)COc2c1cc([C@@](O)(CNC(=O)c1ccc3cn[nH]c3c1)C(F)(F)F)nc2-c1ccc(F)cc1 [Example 587]	> 200
C[C@]1(C(N)=O)COc2c1cc([C@@](O)(CNC(=O)c1cc3cc(Cl)ccc3[nH]1)C(F)(F)F)nc2-c1ccc(F)cc1 [Example 589]	> 200
Cn1ncc2cc(C(=O)NC[C@](O)(c3cc4c(c(-c5ccc(F)cc5)n3)OC[C@]4(C)C(N)=O)C(F)(F)F)ccc21 [Example 591]	< 200
COc1ccc(CC(=O)NC[C@](O)(c2cc3c(c(-c4ccc(F)cc4)n2)OC[C@]3(C)C(N)=O)C(F)(F)F)cc1OC [Example 592]	> 200
COc1ccc(CC(=O)NC[C@](O)(c2cc3c(c(-c4ccc(F)cc4)n2)OC[C@]3(C)C(N)=O)C(F)(F)F)cc1 [Example 593]	> 200
COc1cccc(CC(=O)NC[C@](O)(c2cc3c(c(-c4ccc(F)cc4)n2)OC[C@]3(C)C(N)=O)C(F)(F)F)c1 [Example 594]	> 200
C[C@]1(C(N)=O)COc2c1cc([C@@](O)(CNC(=O)c1cc3c(F)cc(F)cc3[nH]1)C(F)(F)F)nc2-c1ccc(F)cc1 [Example 596]	< 200
C[C@]1(C(N)=O)COc2c1cc([C@@](O)(CNC(=O)c1cc3c(F)cc(Cl)cc3[nH]1)C(F)(F)F)nc2-c1ccc(F)cc1 [Example 597]	< 200

Results, then the compound that gave them:

EC50 [nM]	Compound
< 200	COc1ccc2[nH]c(C(=O)NC[C@](O)(c3cc4c(c(-c5ccc(F)cc5)n3)OC[C@]4(C)C(N)=O)C(F)(F)F)cc2c1 [Example 598]
> 200	C[C@]1(C(N)=O)COc2c1cc([C@@](O)(CNC(=O)c1cc3ccccc3[nH]1)C(F)(F)F)nc2-c1ccc(F)cc1 [Example 599]
> 200	C[C@]1(C(N)=O)COc2c1cc([C@@](O)(CNC(=O)c1cc3c(F)cccc3[nH]1)C(F)(F)F)nc2-c1ccc(F)cc1 [Example 601]
> 200	C[C@]1(C(N)=O)COc2c1cc([C@@](O)(CNC(=O)c1cc3c(Cl)cccc3[nH]1)C(F)(F)F)nc2-c1ccc(F)cc1 [Example 602]
> 200	COc1cccc2cc(C(=O)NC[C@](O)(c3cc4c(c(-c5ccc(F)cc5)n3)OC[C@]4(C)C(N)=O)C(F)(F)F)[nH]c12 [Example 603]
< 200	C[C@]1(C(N)=O)COc2c1cc([C@@](O)(CNC(=O)c1cc3ccc(F)cc3[nH]1)C(F)(F)F)nc2-c1ccc(F)cc1 [Example 604]
< 200	C[C@]1(C(N)=O)COc2c1cc([C@@](O)(CNC(=O)c1cc3ccc(Cl)cc3[nH]1)C(F)(F)F)nc2-c1ccc(F)cc1 [Example 605]
> 200	C[C@]1(C(N)=O)COc2c1cc([C@@](O)(CNC(=O)c1ccc3c(c1)OCC(=O)N3)C(F)(F)F)nc2-c1ccc(F)cc1 [Example 606]
< 200	C[C@]1(C(N)=O)COc2c1cc([C@@](O)(CNC(=O)c1ccc3c(c1)NCCO3)C(F)(F)F)nc2-c1ccc(F)cc1 [Example 607]
< 200	COc1cc(C(=O)NC[C@](O)(c2cc3c(c(-c4ccc(F)cc4)n2)OC[C@]3(C)C(N)=O)C(F)(F)F)cc2cc3c(nc12)CCCC3 [Example 612]
> 200	C[C@]1(C(N)=O)COc2c1cc([C@@](O)(CNC(=O)c1cc(Oc3ncccn3)c3ncccc3c1)C(F)(F)F)nc2-c1ccc(F)cc1 [Example 614]
< 200	COc1cc(C(=O)NC[C@](O)(c2cc3c(c(-c4ccc(F)cc4)n2)OC[C@]3(C)C(N)=O)C(F)(F)F)cc2cc(Br)cnc12 [Example 618]
< 200	Cc1cnc2c(NC(=O)C3(C)COC3)cc(C(=O)NC[C@](O)(c3cc4c(c(-c5ccc(F)cc5)n3)OC[C@]4(C)C(N)=O)C(F)(F)F)cc2c1 [Example 620]
< 200	Cc1cnc2c(NC(=O)Nc3cccnc3)cc(C(=O)NC[C@](O)(c3cc4c(c(-c5ccc(F)cc5)n3)OC[C@]4(C)C(N)=O)C(F)(F)F)cc2c1 [Example 625]
> 200	Cc1ccc2cc(C(=O)NC[C@](O)(c3cc4c(c(-c5ccc(F)cc5)n3)OC[C@]4(C)C(N)=O)C(F)(F)F)cc(NC(=O)NC3CC3)c2n1 [Example 628]
< 200	Cc1cnc2c(OCC(F)F)cc(C(=O)NC[C@](O)(c3cc4c(c(-c5ccc(F)cc5)n3)OC[C@]4(C)C(N)=O)C(F)(F)F)cc2c1 [Example 629]
< 200	Cc1cnc2c(NC(=O)c3ncc(C)o3)cc(C(=O)NC[C@](O)(c3cc4c(c(-c5ccc(F)cc5)n3)OC[C@]4(C)C(N)=O)C(F)(F)F)cc2c1 [Example 630]
< 200	Cc1cnc2c(NC(=O)NNC3CC3)cc(C(=O)NC[C@](O)(c3cc4c(c(-c5ccc(F)cc5)n3)OC[C@]4(C)C(N)=O)C(F)(F)F)cc2c1 [Example 631]
< 200	Cc1cnc2c(NC(=O)NNCC(C)(C)O)cc(C(=O)NC[C@](O)(c3cc4c(c(-c5ccc(F)cc5)n3)OC[C@]4(C)C(N)=O)C(F)(F)F)cc2c1 [Example 632]
< 200	Cn1cc2cc(C(=O)NC[C@](O)(c3cc4c(c(-c5ccc(F)cc5)n3)OC[C@]4(C)C(N)=O)C(F)(F)F)ccc2n1 [Example 637]
< 200	Cn1cc2cc(C(=O)NC[C@](O)(c3cc4c(c(-c5ccc(F)c(Cl)c5)n3)OC[C@]4(C)C(N)=O)C(F)(F)F)ccc2n1 [Example 639]
< 200	CN1Cc2cc(C(=O)NC[C@](O)(c3cc4c(c(-c5ccc(F)cc5)n3)OC[C@]4(C)C(=O)NCC(C)(C)O)C(F)(F)F)ccc2C1=O [Example 643]
< 200	CN1Cc2cc(C(=O)NC[C@](O)(c3cc4c(c(-c5ccc(F)cc5)n3)OC[C@]4(C)C(N)=O)C(F)(F)F)ccc2C1=O [Example 644]
< 200	CN1Cc2cc(C(=O)NC[C@](O)(c3cc4c(c(-c5ccc(F)c(Cl)c5)n3)OC[C@]4(C)C(N)=O)C3CC3)ccc2C1=O [Example 645]
< 200	CN1Cc2cc(C(=O)NC[C@](O)(c3cc4c(c(-c5ccc(F)c(Cl)c5)n3)OC[C@]4(C)C(N)=O)C(F)(F)F)ccc2C1=O [Example 646]
< 200	COc1cc(C(=O)NC[C@](O)(c2cc3c(c(-c4ccc(F)cc4)n2)OC[C@]3(C)C(N)=O)C(F)(F)F)ccc1OCC(C)(C)O [Example 647]
< 200	Cc1cnc2c(S(C)(=O)=O)cc(C(=O)NC[C@](O)(c3cc4c(c(-c5ccc(F)cc5)n3)OC[C@]4(C)C(N)=O)C(F)(F)F)cc2c1 [Example 648]
